# Assay results published in ChEMBL document CHEMBL5303765, “Data for DCP probe BAY-7081” (2023).
# How the values were obtained:
# [1] = target: cGMP-dependent 3',5'-cyclic phosphodiesterase (Homo sapiens, UniProt O00408); assay: Panlabs assay PDE2A; set-up: compound concentration 10 uM; conditions: at 10 µM
# [2] = target: 3',5'-cyclic-AMP phosphodiesterase 7B (Homo sapiens, UniProt Q9NP56); assay: Panlabs assay PDE7B; set-up: compound concentration 10 uM; conditions: at 10 µM
# [3] = target: High affinity 3',5'-cyclic-AMP phosphodiesterase 7A (Homo sapiens) (UniProt Q13946); assay: Panlabs assay PDE7A; set-up: compound concentration 10 uM; conditions: at 10 µM
# High affinity 3',5'-cyclic-AMP phosphodiesterase 7A (Homo sapiens), sequence (Q13946 whole entry): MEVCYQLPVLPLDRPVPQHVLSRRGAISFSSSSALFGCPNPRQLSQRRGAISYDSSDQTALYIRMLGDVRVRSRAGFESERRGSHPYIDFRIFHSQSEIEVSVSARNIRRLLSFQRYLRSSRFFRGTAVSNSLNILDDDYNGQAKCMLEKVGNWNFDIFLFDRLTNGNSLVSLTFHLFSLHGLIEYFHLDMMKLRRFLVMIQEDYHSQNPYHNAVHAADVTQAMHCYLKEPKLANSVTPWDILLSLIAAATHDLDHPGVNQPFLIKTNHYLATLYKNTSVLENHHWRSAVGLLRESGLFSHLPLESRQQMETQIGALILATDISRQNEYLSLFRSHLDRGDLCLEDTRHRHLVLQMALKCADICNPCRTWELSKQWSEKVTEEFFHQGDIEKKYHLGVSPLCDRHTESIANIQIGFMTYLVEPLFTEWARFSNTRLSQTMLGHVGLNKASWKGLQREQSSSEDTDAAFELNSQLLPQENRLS
# [4] = target: 3',5'-cyclic-AMP phosphodiesterase 4C (Homo sapiens) (UniProt Q08493); assay: Panlabs assay PDE4C1; set-up: compound concentration 10 uM; conditions: at 10 µM
# [5] = target: High affinity cGMP-specific 3',5'-cyclic phosphodiesterase 9A (Homo sapiens, UniProt O76083); assay: Panlabs assay PDE9A2; set-up: compound concentration 10 uM
# High affinity cGMP-specific 3',5'-cyclic phosphodiesterase 9A, sequence (O76083 whole entry): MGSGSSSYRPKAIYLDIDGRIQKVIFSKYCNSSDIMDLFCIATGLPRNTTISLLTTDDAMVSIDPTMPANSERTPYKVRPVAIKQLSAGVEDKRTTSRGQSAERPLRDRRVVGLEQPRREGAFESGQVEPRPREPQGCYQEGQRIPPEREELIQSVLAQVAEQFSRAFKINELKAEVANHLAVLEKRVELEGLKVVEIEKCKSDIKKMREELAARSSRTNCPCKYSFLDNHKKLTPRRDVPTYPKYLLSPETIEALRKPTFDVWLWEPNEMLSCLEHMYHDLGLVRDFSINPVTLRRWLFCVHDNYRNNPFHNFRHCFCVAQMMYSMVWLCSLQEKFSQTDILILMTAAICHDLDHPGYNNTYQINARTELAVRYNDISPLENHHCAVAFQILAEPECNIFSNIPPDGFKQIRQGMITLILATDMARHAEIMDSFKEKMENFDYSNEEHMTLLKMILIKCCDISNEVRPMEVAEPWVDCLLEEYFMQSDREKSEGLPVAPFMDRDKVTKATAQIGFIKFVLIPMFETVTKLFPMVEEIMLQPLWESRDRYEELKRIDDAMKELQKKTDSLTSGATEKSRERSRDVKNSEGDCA
# [6] = target: cGMP-inhibited 3',5'-cyclic phosphodiesterase 3A (Homo sapiens) (UniProt Q14432); assay: Panlabs assay PDE3A; set-up: compound concentration 10 uM; conditions: at 10 µM
# cGMP-inhibited 3',5'-cyclic phosphodiesterase 3A (Homo sapiens), sequence (Q14432 whole entry): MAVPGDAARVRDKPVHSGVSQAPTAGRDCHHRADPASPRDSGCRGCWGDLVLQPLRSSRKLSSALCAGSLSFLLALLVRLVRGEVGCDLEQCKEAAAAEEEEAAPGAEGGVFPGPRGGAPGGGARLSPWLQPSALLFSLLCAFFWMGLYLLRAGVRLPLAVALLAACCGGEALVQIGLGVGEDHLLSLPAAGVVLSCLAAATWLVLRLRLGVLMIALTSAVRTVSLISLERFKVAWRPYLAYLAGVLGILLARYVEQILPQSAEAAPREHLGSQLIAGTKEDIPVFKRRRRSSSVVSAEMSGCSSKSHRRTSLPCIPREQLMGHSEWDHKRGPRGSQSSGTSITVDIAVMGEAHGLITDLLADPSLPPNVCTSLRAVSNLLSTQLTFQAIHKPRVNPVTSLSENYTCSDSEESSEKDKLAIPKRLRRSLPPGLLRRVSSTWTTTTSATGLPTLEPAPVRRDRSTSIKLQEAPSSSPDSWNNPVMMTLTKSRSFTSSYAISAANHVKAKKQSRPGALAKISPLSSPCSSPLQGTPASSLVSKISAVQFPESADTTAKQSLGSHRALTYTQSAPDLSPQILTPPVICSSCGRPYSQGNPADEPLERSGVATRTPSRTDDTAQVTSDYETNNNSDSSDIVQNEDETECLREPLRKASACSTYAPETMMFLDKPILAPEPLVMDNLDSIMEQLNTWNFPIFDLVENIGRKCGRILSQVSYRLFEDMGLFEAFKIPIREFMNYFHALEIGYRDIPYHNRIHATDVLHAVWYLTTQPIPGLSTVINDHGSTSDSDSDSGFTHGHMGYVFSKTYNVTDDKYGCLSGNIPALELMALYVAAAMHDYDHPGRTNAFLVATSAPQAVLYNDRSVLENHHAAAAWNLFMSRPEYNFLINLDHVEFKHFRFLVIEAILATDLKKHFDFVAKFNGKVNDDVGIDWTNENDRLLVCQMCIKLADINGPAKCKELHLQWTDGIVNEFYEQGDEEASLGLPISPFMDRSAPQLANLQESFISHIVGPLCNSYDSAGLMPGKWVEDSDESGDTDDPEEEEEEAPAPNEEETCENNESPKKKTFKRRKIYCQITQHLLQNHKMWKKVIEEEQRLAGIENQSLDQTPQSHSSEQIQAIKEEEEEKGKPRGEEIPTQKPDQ
# [7] = target: Neuropeptide Y receptor type 1 (Homo sapiens) (UniProt P25929); assay: Neuropeptide Y Y1 Eurofins Panlabs panel; conditions: Compound concentration 10.0 uM
# [8] = target: Alpha-1A adrenergic receptor (Rattus norvegicus) (UniProt P43140); assay: Adrenergic alpha1A Eurofins Panlabs panel; conditions: Compound concentration 10.0 uM
# [9] = target: L-type calcium channel, benzothiazepine site (Rattus norvegicus, UniProt P22002+P27732+Q02485); assay: Calcium Channel L-Type, Benzothiazepine Eurofins Panlabs panel; type: protein assay; conditions: compound concentration 10 uM
# [10] = target: Phosphodiesterase 6; assay: 3H-cAMP and 3H-cGMP Scintillation Proximity Assay (PDE6); type: tissue-based, Bos taurus, retina
# [11] = target: 5-hydroxytryptamine receptor 2B (Homo sapiens) (UniProt P41595); assay: Serotonin (5-Hydroxytryptamine) 5-HT2B Eurofins Panlabs panel; conditions: Compound concentration 10.0 uM
# [12] = target: T1, Glutamate NMDA receptor (Rattus norvegicus) (UniProt P35439+Q00959+Q00960+Q00961+Q62645+Q8VHN2+Q9R1M7); assay: Glutamate, NMDA, Agonism Eurofins Panlabs panel; type: protein-complex assay; conditions: Compound concentration 10.0 uM
# [13] = target: T2, Muscarinic acetylcholine receptor M4 (Homo sapiens) (UniProt P08173); assay: Muscarinic M4 Eurofins Panlabs panel; conditions: Compound concentration 10.0 uM
# T2 sequence (whole entry): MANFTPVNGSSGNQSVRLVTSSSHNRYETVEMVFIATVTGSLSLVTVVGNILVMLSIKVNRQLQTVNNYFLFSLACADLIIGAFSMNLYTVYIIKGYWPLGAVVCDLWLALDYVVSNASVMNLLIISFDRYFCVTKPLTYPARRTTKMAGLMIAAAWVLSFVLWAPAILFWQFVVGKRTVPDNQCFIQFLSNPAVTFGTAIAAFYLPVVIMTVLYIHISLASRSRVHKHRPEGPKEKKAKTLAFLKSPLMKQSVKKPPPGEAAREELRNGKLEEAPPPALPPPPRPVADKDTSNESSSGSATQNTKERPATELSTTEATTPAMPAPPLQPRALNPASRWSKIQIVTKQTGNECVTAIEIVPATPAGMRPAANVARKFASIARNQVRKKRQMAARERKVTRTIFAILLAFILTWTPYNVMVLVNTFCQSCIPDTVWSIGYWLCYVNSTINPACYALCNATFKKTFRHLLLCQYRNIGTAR
# [14] = target: hERG (KCNH2) potassium channel (Homo sapiens, UniProt Q12809); assay: Potassium Channel hERG Eurofins Panlabs panel; conditions: compound concentration 10 uM
# hERG (KCNH2) potassium channel, sequence (Q12809 whole entry): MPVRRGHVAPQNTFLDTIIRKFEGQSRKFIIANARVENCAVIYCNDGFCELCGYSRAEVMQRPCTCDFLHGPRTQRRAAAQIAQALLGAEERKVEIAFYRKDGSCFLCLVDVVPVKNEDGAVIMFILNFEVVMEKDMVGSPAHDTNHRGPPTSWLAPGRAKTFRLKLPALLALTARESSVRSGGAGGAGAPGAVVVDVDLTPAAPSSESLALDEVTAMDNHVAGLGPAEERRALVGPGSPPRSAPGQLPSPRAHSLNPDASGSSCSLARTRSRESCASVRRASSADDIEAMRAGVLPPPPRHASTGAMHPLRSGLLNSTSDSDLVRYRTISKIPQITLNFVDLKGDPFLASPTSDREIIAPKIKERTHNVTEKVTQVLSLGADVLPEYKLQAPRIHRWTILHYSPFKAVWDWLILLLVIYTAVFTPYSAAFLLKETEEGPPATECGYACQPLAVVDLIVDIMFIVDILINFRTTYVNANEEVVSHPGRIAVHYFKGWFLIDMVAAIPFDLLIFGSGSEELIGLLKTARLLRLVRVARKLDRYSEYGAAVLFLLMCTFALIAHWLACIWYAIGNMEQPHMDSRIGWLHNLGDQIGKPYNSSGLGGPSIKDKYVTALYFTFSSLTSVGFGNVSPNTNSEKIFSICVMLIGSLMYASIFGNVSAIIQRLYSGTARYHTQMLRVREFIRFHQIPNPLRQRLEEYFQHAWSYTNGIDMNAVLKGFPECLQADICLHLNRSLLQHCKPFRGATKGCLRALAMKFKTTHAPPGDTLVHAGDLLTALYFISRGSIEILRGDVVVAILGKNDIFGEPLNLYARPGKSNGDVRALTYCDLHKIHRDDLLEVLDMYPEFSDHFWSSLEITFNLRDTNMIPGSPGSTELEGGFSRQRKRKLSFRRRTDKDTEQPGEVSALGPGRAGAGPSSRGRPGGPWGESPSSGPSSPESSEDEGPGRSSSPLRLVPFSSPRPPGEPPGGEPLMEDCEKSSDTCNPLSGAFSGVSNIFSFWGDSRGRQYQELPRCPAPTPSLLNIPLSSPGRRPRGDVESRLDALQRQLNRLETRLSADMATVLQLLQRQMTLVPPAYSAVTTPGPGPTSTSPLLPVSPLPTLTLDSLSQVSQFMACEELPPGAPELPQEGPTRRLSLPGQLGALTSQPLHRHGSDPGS
# [15] = target: Muscarinic acetylcholine receptor M3 (Homo sapiens) (UniProt P20309); assay: Muscarinic M3 Eurofins Panlabs panel; conditions: Compound concentration 10.0 uM
# [16] = target: Motilin receptor (Homo sapiens) (UniProt O43193); assay: Motilin Eurofins Panlabs panel; conditions: concentration not given here
# [17] = target: Acetylcholinesterase (Homo sapiens) (UniProt P22303); assay: Cholinesterase, Acetyl, ACES Eurofins Panlabs panel; conditions: Compound concentration 10.0 uM
# [18] = target: Progesterone receptor (Homo sapiens) (UniProt P06401); assay: Progesterone PR-B Eurofins Panlabs panel; conditions: Compound concentration 10.0 uM
# [19] = target: Substance-P receptor (Homo sapiens) (UniProt P25103); assay: Tachykinin NK1 Eurofins Panlabs panel; conditions: Compound concentration 10.0 uM
# Substance-P receptor (Homo sapiens), sequence (P25103 whole entry): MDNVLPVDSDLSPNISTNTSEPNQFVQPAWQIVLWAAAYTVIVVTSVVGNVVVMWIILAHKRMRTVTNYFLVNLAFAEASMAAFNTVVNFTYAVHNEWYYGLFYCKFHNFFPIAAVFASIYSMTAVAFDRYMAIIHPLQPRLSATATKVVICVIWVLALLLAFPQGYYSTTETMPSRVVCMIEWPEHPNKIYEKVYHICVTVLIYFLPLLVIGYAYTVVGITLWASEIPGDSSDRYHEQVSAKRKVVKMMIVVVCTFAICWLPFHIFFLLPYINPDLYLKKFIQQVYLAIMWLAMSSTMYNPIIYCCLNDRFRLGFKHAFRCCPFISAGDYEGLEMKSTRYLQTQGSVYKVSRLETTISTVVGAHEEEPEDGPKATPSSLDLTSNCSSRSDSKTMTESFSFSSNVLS
# [20] = target: Alpha-1B adrenergic receptor (Homo sapiens) (UniProt P35368); conditions: Compound concentration 10.0 uM
# Alpha-1B adrenergic receptor (Homo sapiens), sequence (P35368 whole entry): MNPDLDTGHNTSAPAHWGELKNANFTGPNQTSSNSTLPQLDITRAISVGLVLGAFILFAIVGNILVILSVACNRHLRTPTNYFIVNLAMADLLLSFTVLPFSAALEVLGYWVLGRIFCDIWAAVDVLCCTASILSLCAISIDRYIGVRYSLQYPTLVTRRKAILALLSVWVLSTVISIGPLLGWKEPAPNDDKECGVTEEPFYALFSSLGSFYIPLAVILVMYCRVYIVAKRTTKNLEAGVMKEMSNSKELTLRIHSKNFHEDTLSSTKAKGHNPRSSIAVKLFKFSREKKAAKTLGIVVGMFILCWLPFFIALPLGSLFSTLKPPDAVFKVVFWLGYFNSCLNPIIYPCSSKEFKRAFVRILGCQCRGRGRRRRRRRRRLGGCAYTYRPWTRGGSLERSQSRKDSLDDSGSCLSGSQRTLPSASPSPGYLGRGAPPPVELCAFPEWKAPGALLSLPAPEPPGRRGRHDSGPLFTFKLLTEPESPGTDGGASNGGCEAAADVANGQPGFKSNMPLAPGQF
# [21] = target: Glutamate receptor ionotropic, AMPA (Rattus norvegicus) (UniProt P19491+P19492+P19493+P19490); assay: Glutamate, AMPA Eurofins Panlabs panel; type: protein-complex assay; conditions: Compound concentration 10.0 uM
# [22] = target: Phosphodiesterase 3 (Homo sapiens) (UniProt Q14432+Q13370); assay: Phosphodiesterase PDE3 Eurofins Panlabs panel; type: protein assay; conditions: Compound concentration 10.0 uM
# [23] = target: Phosphodiesterase PDE1 (Bos taurus, UniProt Q01061+P14100+A0A3Q1MCV4); assay: 3H-cAMP and 3H-cGMP Scintillation Proximity Assay (PDE1); type: tissue-based, brain
# [24] = target: T3, Muscarinic acetylcholine receptor M2 (Homo sapiens) (UniProt P08172); assay: Muscarinic M2 Eurofins Panlabs panel; conditions: Compound concentration 10.0 uM
# T3 sequence (whole entry): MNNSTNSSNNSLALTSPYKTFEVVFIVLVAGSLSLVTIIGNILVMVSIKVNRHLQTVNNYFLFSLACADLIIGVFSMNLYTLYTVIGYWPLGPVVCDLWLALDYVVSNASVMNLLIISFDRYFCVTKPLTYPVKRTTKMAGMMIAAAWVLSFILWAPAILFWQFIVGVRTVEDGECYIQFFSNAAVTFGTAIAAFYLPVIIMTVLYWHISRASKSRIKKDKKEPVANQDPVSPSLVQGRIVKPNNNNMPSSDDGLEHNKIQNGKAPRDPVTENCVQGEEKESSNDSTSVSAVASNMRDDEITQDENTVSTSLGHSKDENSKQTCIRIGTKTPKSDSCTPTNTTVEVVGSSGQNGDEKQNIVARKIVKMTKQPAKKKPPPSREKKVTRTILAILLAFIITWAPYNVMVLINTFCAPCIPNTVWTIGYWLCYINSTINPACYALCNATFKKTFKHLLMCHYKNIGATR
# [25] = target: Glucocorticoid receptor (Homo sapiens) (UniProt P04150); assay: Glucocorticoid Eurofins Panlabs panel; conditions: Compound concentration 10.0 uM
# [26] = target: Aldo-keto reductase family 1 member B1 (Rattus norvegicus) (UniProt P07943); assay: Aldose Reductase Eurofins Panlabs panel; conditions: Compound concentration 10.0 uM
# [27] = target: Voltage-gated sodium channel, site 2 (Rattus norvegicus, UniProt F1LQQ7+O08562+O88420+O88457+P04774+P04775+P08104+P15389+P15390+Q62968); assay: Sodium Channel, Site 2 Eurofins Panlabs panel; type: protein assay; conditions: compound concentration 10 uM
# [28] = target: T1, Glutamate NMDA receptor (Rattus norvegicus); assay: Glutamate, NMDA, Glycine Eurofins Panlabs panel; type: protein-complex assay; conditions: Compound concentration 10.0 uM
# [29] = target: Cannabinoid receptor 2 (Homo sapiens) (UniProt P34972); assay: Cannabinoid CB2 Eurofins Panlabs panel; conditions: Compound concentration 10.0 uM
# [30] = target: Alpha-1A adrenergic receptor (Homo sapiens) (UniProt P35348); conditions: Compound concentration 10.0 uM
# Alpha-1A adrenergic receptor (Homo sapiens), sequence (P35348 whole entry): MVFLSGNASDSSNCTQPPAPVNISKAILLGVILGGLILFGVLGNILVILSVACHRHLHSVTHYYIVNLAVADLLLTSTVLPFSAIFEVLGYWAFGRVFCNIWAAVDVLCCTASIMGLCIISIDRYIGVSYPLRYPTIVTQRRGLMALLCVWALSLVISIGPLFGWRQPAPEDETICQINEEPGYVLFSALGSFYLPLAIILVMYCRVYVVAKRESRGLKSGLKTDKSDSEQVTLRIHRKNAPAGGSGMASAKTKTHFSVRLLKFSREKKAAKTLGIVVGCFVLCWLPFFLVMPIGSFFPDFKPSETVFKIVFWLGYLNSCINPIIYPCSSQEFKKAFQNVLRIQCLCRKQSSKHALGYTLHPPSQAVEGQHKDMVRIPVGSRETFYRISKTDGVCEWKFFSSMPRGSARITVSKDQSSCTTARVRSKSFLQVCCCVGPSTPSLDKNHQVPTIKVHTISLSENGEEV
# [31] = target: Vasopressin V1a receptor (Homo sapiens) (UniProt P37288); assay: Vasopressin V1A Eurofins Panlabs panel; conditions: concentration not given here
# [32] = target: Adenosine receptor A3 (Homo sapiens) (UniProt P0DMS8); assay: Adenosine A3 Eurofins Panlabs panel; conditions: Compound concentration 10.0 uM
# [33] = target: Purinergic P2Y (Rattus norvegicus) (UniProt O35811+Q9EPX4+P49651+Q63371+P41232+O35881+Q6GUG4); assay: Purinergic P2Y Eurofins Panlabs panel; type: protein assay; conditions: Compound concentration 10.0 uM
# [34] = target: 5-hydroxytryptamine receptor 2A (Homo sapiens) (UniProt P28223); assay: Serotonin (5-Hydroxytryptamine) 5-HT2A Eurofins Panlabs panel; conditions: Compound concentration 10.0 uM
smiles,measurement,setting,value
CCC[C@@H]1CNCc2c1[nH]c(=O)c(C#N)c2N1CCC2(CC1)CC2,inhibition,[1],3.5%
same,inhibition,[2],-2.1%
same,inhibition,[3],-1.6%
same,inhibition,[4],28.6%
same,IC50,[5],7470 nM (not active)
same,inhibition,[6],-1.3%
CCC[C@H]1CNCc2c1[nH]c(=O)c(C#N)c2N1CCC2(CC1)CC2,inhibition,[7],15%
same,inhibition,[8],2%
same,inhibition at 10 µM,[9],18.5%
same,IC50,[10],1560 nM
same,inhibition,[11],13%
same,inhibition,[12],6%
same,inhibition,[13],-4%
same,inhibition at 10 µM,[14],18.5%
same,inhibition,[15],-9%
same,inhibition,[16],0%
same,inhibition,[17],5%
same,inhibition,[18],2%
same,inhibition,[19],-7%
same,inhibition,[20],4.43%
same,inhibition,[21],-2%
same,inhibition,[22],-1.5%
same,IC50,[23],753 nM
same,inhibition,[24],6.67%
same,inhibition,[25],4.67%
same,inhibition,[26],4%
same,inhibition at 10 µM,[27],-4%
same,inhibition,[28],-2%
same,inhibition,[29],-1%
same,inhibition,[30],6.38%
same,inhibition,[31],0%
same,inhibition,[32],12.5%
same,inhibition,[33],5%
same,inhibition,[34],2%
